Measurements: patent US20250002450A1, “CATIONIC STEROID COMPOUNDS, METHOD OF OBTAINING THEREOF, FORMULATIONS COMPRISING THEREOF AND THEIR USES” (UNIVERSIDADE DO PORTO, priority 2021, published 2025)
≈ marks a conversion by molar mass, not a printed value.

Columns and labels:
Format in all cases: cell-based, Candida albicans
[1] = test system: C. albicans ATCC 10231; assay: Propidium iodide influx assay (SYTO 9/PI); settings: 8 μg/mL, 5 min
Experimental: Influx of PI in C. albicans ATCC 10231 treated with compound 1 was evaluated using a commercial kit, which includes fluorescent nucleic acid stains SYTO™ 9 and PI, and measurements were conducted in a fluorescence microplate reader. […] The ability of PI to penetrate cells with damaged membranes makes it suitable for studying the effect of drugs on cell membranes.
In order to assess membrane integrity by the PI influx assay, a commercial kit was used (LIVE/DEAD® BacLight™ Bacterial Viability Kit, for microscopy & quantitative assays, Invitrogen by Thermo Fisher Scientific, Waltham, MA, USA), which includes fluorescent nucleic acid stains SYTO® 9 and PI. Briefly, C. albicans ATCC 10231 colonies from overnight cultures in SDA were suspended in sterile saline and adjusted to 0.5 McFarland. This suspension was then diluted in RPMI (1:50 followed by 1:20) to achieve a final concentration of 0.5-2.5×10^3 CFU/mL and the tubes were incubated overnight at 36° C. in a water bath with shaking. The following day, the cell suspensions were centrifuged at 3500 rpm for 15 min, the supernatant was removed, and the cells were carefully resuspended in 2 mL of 0.85% NaCl (VWR International, Radnor, PA, USA) prepared in ultrapure water. An aliquot of this suspension was then added to each tube of 0.85% NaCl alone (control) or 0.85% NaCl plus an appropriate amount of test compound, in a 1:10 proportion. […] Fluorescence intensity of the stained yeast suspensions was obtained in a microplate reader (Synergy HT, BioTek Instruments) by two consecutive measurements: with excitation wavelength 485 nm and emission wavelength 528 nm (SYTO® 9) and with excitation wavelength 485 nm and emission wavelength 590 nm (PI). Data were analyzed by subtracting background fluorescence from each sample, dividing fluorescence intensity of SYTO® 9 by fluorescence intensity of PI, and are presented as a percentage of control. […]

[2] = test system: C. albicans ATCC 10231; assay: Ergosterol binding assay
Experimental: Ceragenins have been described to interact with the lipophilic environment of microbial membranes and ergosterol is the major sterol component of fungal plasma membrane, and the target of several antifungals. As such, in order to evaluate the ability of compound 1 to bind to membrane ergosterol of C. albicans ATCC 10231, MICs were determined in the absence and presence of exogenous ergosterol ([FIG. 10]). If the tested compound has the ability to perturb membrane integrity by binding to ergosterol, is expected that, in the presence of exogenous ergosterol, the compound binds to it, decreasing the amount of compound available to bind to membrane ergosterol, therefore increasing the MIC. Amphotericin B was used as a positive control for this assay and MICs obtained were 8 times higher in the presence of 400 μg/mL of exogenous ergosterol than in its absence (2 to 16 μg/mL, data not shown). […] The ability of compound 1 to bind to membrane ergosterol of C. albicans ATCC 10231, was evaluated by the ergosterol binding assay, as previously described. Briefly, MICs of compound 1 were determined by broth microdilution, as described above, in the absence and presence of ergosterol (Sigma-Aldrich, St. Louis, MO, USA) at a final concentration of 400 μg/mL. Ergosterol was prepared immediately before being added to the plates, by maceration and dissolution in DMSO. The formed emulsion was then homogenized, heated to increase solubility, and diluted in RPMI. Amphotericin B was used as positive control. Plates were incubated at 35° C. for 48 h and MICs were determined as described above. At least two independent assays were performed.

[3] = test system: C. albicans ATCC 10231; assay: Mitochondrial dehydrogenases activity, MTT reduction assay; settings: 8 μg/mL, 2 h
Experimental: In order to determine whether compound 1 could also affect mitochondrial function, MTT reduction assay was performed. In this assay, tetrazolium salts are reduced to purple formazan derivatives by mitochondrial dehydrogenases, which can be measured spectrophotometrically and reported to mitochondrial activity and, indirectly, to cell viability. In this assay, cells were exposed to the test compounds for 2 h ([FIG. 11]). […] An increase in reactive oxygen species (ROS) has been linked to azoles activity: even though their primary mode of action is the inhibition of ergosterol synthesis, they also induce accumulation of ROS, which enhances their antifungal activity and translates into an increase in mitochondrial activity at inhibitory concentrations. […] Mitochondrial dehydrogenase activity was evaluated by the MTT assay, as previously described, with some modifications. Cell suspensions of C. albicans ATCC 10231 were prepared in the same manner as described above and, after overnight incubation at 36° C., were centrifuged at 3500 rpm for 15 min, the supernatant was removed, and the cells were carefully resuspended in 2 mL of RPMI. Test conditions and controls were the same as described above, but the time of exposure to the test compounds was 2 h. After the exposure time, cell suspensions were centrifuged at 3500 rpm for 10 min, the supernatant was removed, and 500 μL of MTT solution (0.5 mg/mL in RPMI, at 35° C.) (Thiazolyl Blue Tetrazolium Bromide, Alfa Aesar, Ward Hill, MA, USA) were added. After a 1 h incubation at 35° C., the insoluble formazan product resulting from the conversion of MTT by mitochondrial dehydrogenases of metabolically active cells was solubilized with 300 μL of DMSO. 100 μL of each sample were transferred in duplicate to a microtiter plate and the extent of the reduction of MTT to formazan was quantified by measuring the absorbance at 570 nm. Three independent assays were performed in duplicate, and the results are expressed as percentage of MTT reduction, using the untreated cells as control.

C[C@@H]1[C@H](O)[C@@H](C)/C=C/C=C/C=C/C=C/C=C/C=C/C=C/[C@H](O[C@@H]2O[C@H](C)[C@@H](O)[C@H](N)[C@@H]2O)C[C@@H]2O[C@](O)(C[C@@H](O)C[C@@H](O)[C@H](O)CC[C@@H](O)C[C@@H](O)CC(=O)O[C@H]1C)C[C@H](O)[C@H]2C(=O)O [Amphotericin B]
reduction of SYTO 9/PI ratio vs untreated control [1]: statistically significant
increase of MIC in the presence of exogenous ergosterol ([2]; 400 μg/mL ergosterol vs absence): 8 times
MIC ([2]; absence of exogenous ergosterol): 2 µg/mL (≈ 2.16 µM)
MIC ([2]; presence of 400 μg/mL of exogenous ergosterol): 16 µg/mL
mitochondrial activity (MTT reduction) vs untreated control [3]: significantly reduced
